System: CT26 syngeneic model (subcutaneous CT26 tumors)
Test: In vivo efficacy study testing combination of sur301 (sADC×25) with gemcitabine in the CT26 syngeneic model
Set-up: species or system female BALB/c mice
Conditions: Gemcitabine 80 mg/kg i.p. q3d×4 (Days 1, 4, 7, 10), single agent, animals of n=10/group
Experimental: On the day of implant, cultured CT26 cells were harvested during log phase growth and resuspended in PBS at a concentration of 3×10^6 cells/mL. Tumors were initiated by subcutaneously implanting 3×10^5 CT26 cells (0.1 mL suspension) into the right flank of each test animal. Tumors were monitored as their volumes approached the target range of 80-120 mm^3. Tumor were measured in two dimensions using calipers, and volume was calculated using the formula:
Tumor Volume (mm^3)=w2×l/2
where w=width and l=length, in mm, of the tumor. Tumor weight may be estimated with the assumption that 1 mg is equivalent to 1 mm3 of tumor volume.
Fifteen days after tumor cell implantation, on Day 1 of the study, animals were sorted into groups (n=10/group) with individual tumor volumes of 75 to 144 mm^3, and group mean tumor volumes of 104-106 mm^3.
All doses were administered intraperitoneally (i.p.). The dosing volume was 0.2 mL per 20 grams of body weight (10 mL/kg), and was scaled to the body weight of each individual animal.
Gemcitabine was administered at 80 mg/kg q3d×4 which corresponded to Days 1, 4, 7 and 10.
The antibody component of ADC×25 specifically binds human CD25. […]
Tumors were measured using calipers twice per week, and each animal was euthanized when its tumor reached the endpoint volume of 2000 mm^3 or at the end of the study (Day 56), whichever came first.
Response Table Criteria: • Treatment may cause partial regression (PR) or complete regression (CR) of the tumor in an animal. • In a PR response, the tumor volume is 50% or less of its Day 1 volume for three consecutive measurements during the course of the study, and equal to or greater than 13.5 mm3 for one or more of these three measurements. • In a CR response, the tumor volume is less than 13.5 mm3 for three consecutive measurements during the study. • Any animal with a CR response at the end of the study was additionally classified as a tumor-free survivor (TFS). • Animals were scored only once during the study for a PR or CR event and only as CR if both PR and CR criteria were satisfied. […]

Nc1ccn([C@@H]2O[C@H](CO)[C@@H](O)C2(F)F)c(=O)n1 [Gemcitabine]
0: CR (complete regression) | PR (partial regression) | TFS (tumor-free survivor) (end of study Day 56)

— patent US20230132256A1, “COMBINATION THERAPY” (ADC THERAPEUTICS SA, priority 2018, published 2023)
